Active and inactive are the calls of the source. The calls are words filed in the database; no cut-off is given here.
Key:
HT-22 [1] = assay: Upregulation of Nrf2 protein level in OGD/R induced mouse HT-22 cells at 1 to 10 uM by Western blot analysis; format: functional, cell-based; conditions: dose 1-10 µM
HT-22 [2] = assay: Upregulation of GPX4 protein level in OGD/R induced mouse HT-22 cells at 1 to 10 uM by Western blot analysis; format: functional, cell-based; conditions: dose 1-10 µM
HT-22 [3] = assay: Anti-apoptotic activity in OGD/R mouse HT-22 cells assessed as reduction in proportion of apoptic cells by annexin V-FITC and PI staining based flow cytometry analysis; format: functional, cell-based; conditions: dose 1-10 µM
BV-2 [4] = assay: Anti-inflammatory activity against OGD/R and erastin induced ferroptosis in mouse BV-2 cells assessed as inhibition of TNF-alpha production preincubated for 6 hrs followed by OGD addition and measured after 1 hr by ELISA method; format: functional, cell-based; conditions: dose 10-40 µM, time 7.0 hrs
Mus musculus [5] = assay: Neuroprotective activity against MCAO-R induced 12 hrs fasted male C57BL/6J mouse model assessed as reduction in infarct volume at 25 mg/kg, ip for 7 days by TTC staining based analysis; format: functional, organism-based; conditions: time 7.0 day
HT-22 [6] = assay: Upregulation of HO-1 protein level in OGD/R induced mouse HT-22 cells at 1 to 10 uM by Western blot analysis; format: functional, cell-based; conditions: dose 1-10 µM
Mus musculus [7] = assay: In vivo activation of Nrf2 pathway in MCAO-R induced 12 hrs fasted male C57BL/6J mouse model assessed as increase in GCLC expression level at 10 to 50 mg/kg, ip by Western blot analysis; format: functional, organism-based; conditions: dose 10-50 mg/kg
Mus musculus [8] = assay: Neuroprotective activity against MCAO-R induced 12 hrs fasted male C57BL/6J mouse model assessed as reduction in infarct volume administered as ip once a day for 7 days by TTC staining based analysis; format: functional, organism-based; conditions: time 7.0 day
HT-22 [9] = assay: Anti-ferroptotic activity against OGD/R induced mouse HT-22 cells decrease in MDA level at 10 uM in presence of ML385; format: functional, cell-based
Mus musculus [10] = assay: Neuroprotective activity against MCAO-R induced 12 hrs fasted male C57BL/6J mouse model assessed as decrease in LDH level in cerebral ischemic tissue at 10 to 50 mg/kg, ip administered once a day for 7 days; format: functional, organism-based; conditions: dose 10-50 mg/kg, time 7.0 day
Mus musculus [11] = species: Mus musculus; assay: Antiinflammatory activity in MCAO-R induced 12 hrs fasted male C57BL/6J mouse model assessed as reduction in IL-18 level by ELISA method; format: functional, organism-based
Mus musculus [12] = assay: Neuroprotective activity against MCAO-R induced 12 hrs fasted male C57BL/6J mouse model assessed as decrease in S100 expression in CA3 by measuring decrease in fluorescence intensity administered once a day as ip dose for 7 days by immunofluorescence method; format: functional, organism-based; conditions: dose 10-50 mg/kg, time 7.0 day
HT-22 [13] = assay: Antioxidant activity against OGD/R induced oxidative stress in mouse HT-22 cells assessed as reduction in ROS release level at 1 to 10 uM by DCFH-DA staining based flow cytometry analysis; format: functional, cell-based; conditions: dose 1-10 µM
HT-22 [14] = assay: Antioxidant activity against OGD/R induced oxidative stress in mouse HT-22 cells assessed as decrease in MDA content by absorbance based automatic microplate reader analysis; format: functional, cell-based
[15] = Antioxidant activity assessed as trolox equivalent of ORAC radical scavenging activity at 0.125 to 2 uM by AAPH based automatic microplate reader analysis; format: functional; conditions: dose 0.125-2 µM
HT-22 [16] = assay: Upregulation of Nrf2 mRNA level in OGD/R induced mouse HT-22 cells at 1 to 10 uM by qRT-PCR analysis; format: functional, cell-based; conditions: dose 1-10 µM
Mus musculus [17] = assay: Neuroprotective activity against MCAO-R induced 12 hrs fasted male C57BL/6J mouse model assessed as decrease in S100 expression in cortex by measuring decrease in fluorescence intensity administered once a day as ip dose for 7 days by immunofluorescence method; format: functional, organism-based; conditions: dose 10-50 mg/kg, time 7.0 day
BV-2 [18] = assay: Anti-inflammatory activity against OGD/R and erastin induced ferroptosis in mouse BV-2 cells assessed as inhibition of IL-6 production preincubated for 6 hrs followed by OGD addition and measured after 1 hr by ELISA method; format: functional, cell-based; conditions: dose 10-40 µM, time 7.0 hrs
HT-22 [19] = assay: Antioxidant activity against OGD/R induced damage in mouse HT-22 cells assessed as decrease in proportion of mitochondrial depolarized cells by JC-1 fluorescence based flow cytometry analysis; format: functional, cell-based; conditions: dose 1-10 µM
HT-22 [20] = assay: Cytoprotective activity against OGD/R induced mouse HT-22 cells assessed as increase in cell viability at 10 uM measured after 24 hrs by MTT assay; format: functional, cell-based
HT-22 [21] = assay: Induction of morphological changes in OGD/R induced mouse HT-22 cells assessed as attenuation of cell shrinkage by microscopic based analysis; format: functional
Mus musculus [22] = species: Mus musculus; assay: Antiinflammatory activity in MCAO-R induced 12 hrs fasted male C57BL/6J mouse model assessed as reduction in TNF-alpha level by ELISA method; format: functional, organism-based
Mus musculus [23] = assay: Neuroprotective activity against MCAO-R induced 12 hrs fasted male C57BL/6J mouse model assessed as improvement in neuronal mortality at 10 to 50 mg/kg, ip administered once a day for 7 days by H and E staining based analysis; format: functional, organism-based; conditions: dose 10-50 mg/kg, time 7.0 day
[24] = target: Phospholipid hydroperoxide glutathione peroxidase GPX4 (Mus musculus) (UniProt O70325); assay: In vivo activation of Nrf2 pathway in MCAO-R induced 12 hrs fasted male C57BL/6J mouse model assessed as increase in GPX4 expression level at 10 to 50 mg/kg, ip by Western blot analysis; format: functional, organism-based; conditions: dose 10-50 mg/kg
HT-22 [25] = assay: Upregulation of HO-1 protein level in OGD/R induced mouse HT-22 cells at 10 uM in presence of ML385 by Western blot analysis; format: functional, cell-based
HT-22 [26] = assay: Cytoprotective activity against OGD/R induced mouse HT-22 cells assessed as inhibition of intracellular LDH release at 10 uM in presence of ML385; format: functional, cell-based
HT-22 [27] = assay: Cytoprotective activity against OGD/R induced mouse HT-22 cells assessed as increase in cell viability at 10 uM measured after 24 hrs in presence of ML385 by MTT assay; format: functional, cell-based

Chain of Phospholipid hydroperoxide glutathione peroxidase GPX4 (Mus musculus) (O70325 whole entry): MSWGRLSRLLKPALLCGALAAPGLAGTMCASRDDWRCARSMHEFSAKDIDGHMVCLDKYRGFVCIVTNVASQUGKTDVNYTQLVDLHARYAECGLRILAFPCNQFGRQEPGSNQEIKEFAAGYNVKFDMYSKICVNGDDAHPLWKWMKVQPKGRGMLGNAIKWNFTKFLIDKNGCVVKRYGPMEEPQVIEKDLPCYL

With `Cc1ccc(C(=O)NCCc2c[nH]c3ccc(N(C)C)cc23)c(O)c1` the Activity (HT-22 [1]) was “Active”, the Activity (HT-22 [2]) was “Active” and the Activity (HT-22 [3]) was “Dose-Dependent Effect”. For the same compound, the Activity (BV-2 [4]) was “Dose-Dependent Effect”, the Activity (Mus musculus [5]) was “Active” and the Activity (HT-22 [6]) was “Active”. For the same compound, the Activity (Mus musculus [7]) was “Active”, the Activity (Mus musculus [8]) was “Dose-Dependent Effect” and the Activity (HT-22 [9]) was “inactive”. The Activity (Mus musculus [10]) was “Active”, the Activity (Mus musculus [11]) was “Active” and the Activity (Mus musculus [12]) was “Dose-Dependent Effect”. The Activity (HT-22 [13]) was “Active”, the Activity (HT-22 [14]) was “Active” and the Activity [15] was 5.2. The Activity (HT-22 [16]) was “Active”, the Activity (Mus musculus [17]) was “Dose-Dependent Effect” and the Activity (BV-2 [18]) was “Dose-Dependent Effect”. For the same compound, the Activity (HT-22 [19]) was “Dose-Dependent Effect”, the Activity (HT-22 [20]) was “Active” and the Activity (HT-22 [21]) was “Active”. For the same compound, the Activity (Mus musculus [22]) was “Active”, the Activity (Mus musculus [23]) was “Active” and the Activity [24] was “Active”. The Activity (HT-22 [25]) was “inactive”, the Activity (HT-22 [26]) was “inactive” and the Activity (HT-22 [27]) was “inactive”.
